Experimental data published in PubChem BioAssay (NCI).
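In this assay, cells in 96-well plates receive the compound at five concentrations for 48 hours. Endpoints are linearly interpolated between the surrounding concentrations. GI50 is the concentration that inhibits growth by half. Definition used: TGI = concentration required for complete inhibition of growth.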

Columns and labels:
Test in all cases: NCI anticancer screen, dose series, 48 h
[1] = test system: OVCAR-5 ovarian
[2] = test system: PC-3 prostate
[3] = test system: MALME-3M melanoma
[4] = test system: MDA-MB-231 breast
[5] = test system: HT29 colon
[6] = test system: CAKI-1 renal
[7] = test system: RPMI-8226 leukemia
[8] = test system: NCI-H23 lung
[9] = test system: CCRF-CEM leukemia
[10] = test system: HL-60(TB) leukemia

| Compound | GI50 [1] [µM] | TGI [1] [µM] | GI50 [2] [µM] | TGI [2] [µM] | GI50 [3] [µM] | TGI [3] [µM] | GI50 [4] [µM] | TGI [4] [µM] | GI50 [5] [µM] | TGI [5] [µM] | GI50 [6] [µM] | TGI [6] [µM] | GI50 [7] [µM] | TGI [7] [µM] | GI50 [8] [µM] | TGI [8] [µM] | GI50 [9] [µM] | TGI [9] [µM] | GI50 [10] [µM] | TGI [10] [µM] |
| --- | --- | --- | --- | --- | --- | --- | --- | --- | --- | --- | --- | --- | --- | --- | --- | --- | --- | --- | --- | --- |
| COc1ccc(-c2cncn2-c2cc(OC)c(OC)c(OC)c2)cc1F | 0.0789 | > 100 | 0.0179 | > 100 | 49 | > 100 | 0.103 | > 100 | < 0.01 | > 38.6 | < 0.0197 | > 24.4 | < 0.01 | 12.2 | 0.149 | > 100 | < 0.0296 | > 100 | 0.0103 | < 0.0288 |
| Cc1ccc(-c2cc(/C=N/O)on2)cc1 | > 100 | > 100 | 63 | > 100 | > 100 | > 100 | > 100 | > 100 | 48.4 | > 100 | 43.9 | > 100 | 36.9 | > 100 | 73.1 | > 100 | 46.9 | > 100 | 26.5 | > 100 |
| CCOC(=O)C(Cc1ccc(OC)cc1)C(=O)OCC | 11.4 | 24.2 | 5.08 | 32.4 | 9.94 | 28 | 7.87 | 27.3 | 4.15 | 25.4 | 4.67 | 16.6 | 3.05 | 14.3 | 3.63 | 14.9 | 3.18 | 28.2 | 2.26 | 8.39 |
| COc1ccc(-n2sc(=O)n(Cc3ccc(COC(=O)C(C)c4ccc(CC(C)C)cc4)cc3)c2=O)cc1 (configuration not stated) | 5.58 | 11.8 | 5.63 | 12.8 | 1.04 | 2.3 | 1.86 | 7.11 | 2.12 | 16.1 | 1.36 | 5.37 | 1.51 | 4.11 | 5.72 | 14.1 | 0.567 | 3.74 | 1.23 | 4.89 |
| C=C=[CH][Sn]([c]1ccccc1)([c]1ccccc1)[c]1ccccc1 | 1.46 | 2.9 | 1.46 | 3.68 | 1.74 | 3.57 | 1.79 | 3.36 | 1.21 | 2.45 | 1.74 | 4.29 | 1.4 | 4.36 | 1.58 | 3.47 | 0.79 | 3.4 | 1.78 | 4.57 |
| CCOc1cc(/C=N\NC(=O)N/N=C/c2ccc(O)c(OCC)c2)ccc1O | 59.3 | > 100 | 3.51 | > 100 | 0.973 | > 100 | 6.45 | > 100 | 3.38 | > 100 | 3.06 | > 100 | 4.79 | > 53 | 4.22 | > 100 | 2.51 | > 100 | 2.5 | > 39.2 |
| CC(C)N(C[C@H]1O[C@@H](n2cnc3c(N)ncnc32)[C@H](O)[C@@H]1O)C1CC(CCc2nc3ccc(C(C)(C)C)cc3[nH]2)C1 (some centres not stated) | > 46.9 | > 100 | 97.9 | > 100 | 20 | > 60.8 | 69.8 | > 100 | 94.8 | > 100 | > 100 | > 100 | 46 | > 100 | > 100 | > 100 | > 49.3 | > 84.4 | > 65.9 | > 100 |
| ClC1=C(Cl)C(Cl)=C(Cl)C1=Cc1ccc(Cl)cc1 | 0.705 | 2.05 | 0.876 | 6.5 | 1.42 | 3.6 | 0.302 | 1.08 | 0.27 | 0.735 | 0.429 | – | 0.422 | 5.32 | 0.796 | 2.85 | 0.33 | 2.47 | 1.21 | 5.86 |
| C=C1CO[C@@H]2C[C@@H]1CC/C(C)=C/CC/C(C)=C/CC[C@@]2(C)O | 18.7 | 39.9 | 15.7 | 33.6 | – | – | 15.5 | 33.3 | 28.4 | 94.1 | 20.3 | 41.8 | 10.9 | 33.9 | 21.8 | 44.6 | 14.7 | 33.9 | 1.17 | 11.2 |
| c1cnc2c(c1)Nc1cnncc1S2 | – | > 100 | – | > 100 | – | > 100 | – | > 100 | – | > 100 | – | > 100 | – | > 100 | – | > 100 | – | > 100 | – | > 100 |
| CN(NC(=O)CC(=O)NN(C)C(=S)c1ccc(Cl)cc1)C(=S)c1ccc(Cl)cc1 | 25.9 | > 100 | 10.7 | 56.5 | 13.2 | 52 | 19.8 | 65.2 | 23.6 | > 100 | 13.6 | > 100 | 12.6 | > 100 | 12.1 | 46.2 | 7.94 | > 100 | 25.1 | 71.7 |
| C/C(=N\Nc1cccc(Cl)n1)c1ccccn1 | 0.819 | > 100 | 0.89 | > 100 | 1.78 | 8.71 | 0.584 | > 100 | 0.909 | > 100 | 0.437 | 7.31 | 0.615 | 8.28 | 1.28 | > 37.6 | 0.365 | > 25.2 | 0.446 | 3.94 |
| CC(=O)N[C@@H](Cc1ccc(OP(=O)(O)O)cc1)C(=O)N[C@H]1CCC(=O)N2CCC[C@@H](C(=O)NCc3ccc(O)cc3)N2C1=O | > 25 | > 25 | > 25 | > 25 | > 25 | > 25 | > 25 | > 25 | > 25 | > 25 | > 25 | > 25 | > 25 | > 25 | > 25 | > 25 | > 25 | > 25 | > 25 | > 25 |
